From US7989438B2, “Therapeutic compounds” (Istituto di Ricerche di Biologia Molecolare P. Angeletti SpA, priority 2007, dated 2011)

The compounds below were run on HCV subgenomic replication (assay: Cell based HCV replication assay (subgenomic replicon in Huh-7 cells, NS3 Cell-ELISA)). Conditions: Hepatitis C virus; Table A; activity ranges; Huh-7 replicon cells, 96 hours; read-out: IC50 (nM), Inhibition of HCV subgenomic replication.
Source text: Cell clones that stably maintain subgenomic HCV replicon were obtained by transfecting Huh-7 cells with an RNA replicon identical to I377neo/NS3-3′/wt described by Lohmann et al. (1999) (EMBL-genbank No. AJ242652), followed by selection with neomycin sulfate (G418). Viral replication was monitored by measuring the expression of the NS3 protein by an ELISA assay performed directly on cells grown in 96 wells microtiter plates (Cell-ELISA) using the anti-NS3 monoclonal antibody 10E5/24 (as described in published International application WO 02/59321). Cells were seeded into 96 well plates at a density of 10^4 cells per well in a final volume of 0.1 ml of DMEM/10% FCS. Two hours after plating, 50 μl of DMEM/10% FCS containing a 3× concentration of inhibitor were added, cells were incubated for 96 hours and then fixed for 10 minutes with ice-cold isopropanol. Each condition was tested in duplicate and average absorbance values were used for calculations. The cells were washed twice with PBS, blocked with 5% non-fat dry milk in PBS+0.1% Triton X100+0.02% SDS (PBSTS) and then incubated o/n at 4° C. with the 10E5/24 mab diluted in Milk/PBSTS. After washing 5 times with PBSTS, the cells were incubated for 3 hours at room temperature with Fc specific anti-mouse IgG conjugated to alkaline phosphatase (Sigma), diluted in Milk/PBSTS. After washing again as above, the reaction was developed with p-Nitrophenyl phosphate disodium substrate (Sigma) and the absorbance at 405/620 nm read at intervals. For calculations, we used data sets where samples incubated without inhibitors had absorbance values comprised between 1 and 1.5. The inhibitor concentration that reduced by 50% the expression of NS3 (IC50) was calculated by fitting the data to the Hill equation, Fraction inhibition=1−(Ai−b)/(A0−b)=[I]^n/([I]^n+[…]) where: • Ai=absorbance value of HBI10 cells supplemented with the indicated inhibitor concentration. • A0=absorbance value of HBI10 cells incubated without inhibitor. • b=absorbance value of Huh-7 cells plated at the same density in the same microtiter plates and incubated without inhibitor. • n=Hill coefficient.

| Compound | IC50 [nM] |
| --- | --- |
| O=C1NS(=O)(=O)N2CCN(CCCC3COc4ccccc4-c4c(C5CCCCC5)c5ccc1cc5n4C3)CC2 (centres unmarked) [Compound A34, 30-cyclohexyl-18-oxa-2-thia-1,3,10,24-tetraazahexacyclo[22.2.2.1^5,9.1^8,11.1^10,20.0^12,17]hentriaconta-5(31),6,8,11(30),12,14,16-heptaen-4-one 2,2-dioxide] | 25 to 150 |

Same assay, conditions: Table 1, 16 membered macrocycles; activity ranges; read-out: IC50* (nM), Inhibition of HCV subgenomic replication

| Compound | IC50 [nM] |
| --- | --- |
| CN1CCCN(C)S(=O)(=O)NC(=O)c2ccc3c(C4CCCCC4)c4n(c3c2)CC(CC1)COc1ccccc1-4 (centres unmarked) [Example 101, 14-cyclohexyl-18,22-dimethyl-7,8-dihydro-6H-7,11-(ethanoiminopropanoiminothioiminomethano)indolo[1,2-e][1,5]benzoxazocin-15-one 17,17-dioxide] | 25 to 150 |
| CN1CCN(CCOCc2ccccc2)CCN(C)S(=O)(=O)NC(=O)c2ccc3c(C4CCCCC4)c4n(c3c2)CC1COc1ccccc1-4 [Example 102, (7R)-21-[2-(benzyloxy)ethyl]-14-cyclohexyl-18,24-dimethyl-7,8-dihydro-6H-7,11-(epiminoethanoiminoethanoiminothioiminomethano)-indolo[1,2-e][1,5]benzoxazocin-15-one 17,17-dioxide] | < 25 |
| CN1CCN(CCO)CCN(C)S(=O)(=O)NC(=O)c2ccc3c(C4CCCCC4)c4n(c3c2)CC1COc1ccccc1-4 [Example 103, (7R)-14-cyclohexyl-21-(2-hydroxyethyl)-18,24-dimethyl-7,8-dihydro-6H-7,11-(epiminoethanoiminoethanoiminothioiminomethano)-indolo[1,2-e][1,5]benzoxazocin-15-one 17,17-dioxide] | < 25 |
| CC(C)CN1CCN(C)C2COc3ccccc3-c3c(C4CCCCC4)c4ccc(cc4n3C2)C(=O)NS(=O)(=O)N(C)CC1 [Example 104, (7R)-14-cyclohexyl-21-isobutyl-18,24-dimethyl-7,8-dihydro-6H-7,11-(epiminoethanoiminoethanoiminothioiminomethano)-indolo[1,2-e][1,5]benzoxazocin-15-one 17,17-dioxide] | < 25 |
| CN(C)CC(=O)N1CCN(C)[C@H]2COc3ccccc3-c3c(C4CCCCC4)c4ccc(cc4n3C2)C(=O)NS(=O)(=O)N(C)CC1 [Example 105, (7R)-14-cyclohexyl-21-(N,N-dimethylglycyl)-18,24-dimethyl-7,8-dihydro-6H-7,11-(epiminoethanoiminoethanoiminothioiminomethano)-indolo[1,2-e][1,5]benzoxazocin-15-one 17,17-dioxide] | < 25 |
| CCN1CCN(C)C2COc3ccccc3-c3c(C4CCCCC4)c4ccc(cc4n3C2)C(=O)NS(=O)(=O)N(CCO)CC1 [Example 106, (7R)-14-cyclohexyl-21-ethyl-18-(2-hydroxyethyl)-24-methyl-7,8-dihydro-6H-7,11-(epiminoethanoiminoethanoiminothioiminomethano)-indolo[1,2-e][1,5]benzoxazocin-15-one 17,17-dioxide] | < 25 |
| CCN1CCN(CC)C2COc3ccccc3-c3c(C4CCCCC4)c4ccc(cc4n3C2)C(=O)NS(=O)(=O)N(C)CC1 [Example 107, (7R)-14-cyclohexyl-21,24-diethyl-18-methyl-7,8-dihydro-6H-7,11-(epiminoethanoiminoethanoiminothioiminomethano)-indolo[1,2-e][1,5]benzoxazocin-15-one 17,17-dioxide] | < 25 |

Same assay, conditions: Table 2, various macrocycles; activity ranges; read-out: IC50* (nM), Inhibition of HCV subgenomic replication

| Compound | IC50 [nM] |
| --- | --- |
| CN1CCN(Cc2ccccc2)CCN(C)S(=O)(=O)NC(=O)c2ccc3c(C4CCCCC4)c4n(c3c2)CC1Cc1ccccc1-4 (centres unmarked) [Example 201, 20-benzyl-13-cyclohexyl-17,23-dimethyl-6,7-dihydro-5H-6,10-(epiminoethanoiminoethanoiminothioiminomethano)-indolo[2,1-a][2]benzazepin-14-one 16,16-dioxide] | > 500 |
| CN1CCN(C)C2COc3ccc(F)cc3-c3c(C4CCCCC4)c4ccc(cc4n3C2)C(=O)NS(=O)(=O)N(C)CC1 [Example 202, (7R)-14-cyclohexyl-2-fluoro-18,21,24-trimethyl-7,8-dihydro-6H-7,11-(epiminoethanoiminoethanoiminothioiminomethano)-indolo[1,2-e][1,5]benzoxazocin-15-one 17,17-dioxide] | < 25 |
| CCN1CCN(C)C2COc3cc(F)ccc3-c3c(C4CCCCC4)c4ccc(cc4n3C2)C(=O)NS(=O)(=O)N(C)CC1 [Example 203, (7R)-14-cyclohexyl-21-ethyl-3-fluoro-18,24-dimethyl-7,8-dihydro-6H-7,11-(epiminoethanoiminoethanoiminothioiminomethano)-indolo[1,2-e][1,5]benzoxazocin-15-one 17,17-dioxide] | < 25 |

Same assay, conditions: Table A; activity ranges; Huh-7 replicon cells, 96 hours; read-out: IC50 (nM), Inhibition of HCV subgenomic replication

| Compound | IC50 [nM] |
| --- | --- |
| CN1CCN(C)C2COc3ccccc3-c3c(C4CCCCC4)c4ccc(cc4n3C2)C(=O)NS(=O)(=O)N(C)C(C)(C)C1 [Compound A24, (7R)-14-cyclohexyl-18,19,19,21,24-pentamethyl-7,8-dihydro-6H-7,11-(epiminoethanoiminoethanoiminothioiminomethano)indolo[1,2-e][1,5]benzoxazocin-15-one 17,17-dioxide] | 25 to 150 |
| CN1CCCC2COc3ccccc3-c3c(C4CCCCC4)c4ccc(cc4n3C2)C(=O)NS(=O)(=O)N(C)CC1 [Compound A25, (7R)-14-cyclohexyl-18,21-dimethyl-7,8-dihydro-6H-7,11-(propanoiminoethanoiminothioiminomethano)indolo[1,2-e][1,5]benzoxazocin-15-one 17,17-dioxide] | < 25 |
| CCN1CCN(C)C2COc3c(CN4CCCCC4)cccc3-c3c(C4CCCCC4)c4ccc(cc4n3C2)C(=O)NS(=O)(=O)N(C)CC1 [Compound A26, (7R)-14-cyclohexyl-21-ethyl-18,24-dimethyl-4-(piperidin-1-ylmethyl)-7,8-dihydro-6H-7,11-(epiminoethanoiminoethanoiminothioiminomethano)indolo[1,2-e][1,5]benzoxazocin-15-one 17,17-dioxide] | < 25 |
| COc1cccc2c1OCC1Cn3c-2c(C2CCCCC2)c2ccc(cc23)C(=O)NS(=O)(=O)N(C)CCNCCN1C [Compound A27, (7R)-14-cyclohexyl-4-methoxy-18,24-dimethyl-7,8-dihydro-6H-7,11-(epiminoethanoiminoethanoiminothioiminomethano)indolo[1,2-e][1,5]benzoxazocin-15-one 17,17-dioxide] | < 25 |
| CCN1CCN(C)C2COc3c(OC)cccc3-c3c(C4CCCCC4)c4ccc(cc4n3C2)C(=O)NS(=O)(=O)N(C)CC1 [Compound A28, (7R)-14-cyclohexyl-21-ethyl-4-methoxy-18,24-dimethyl-7,8-dihydro-6H-7,11-(epiminoethanoiminoethanoiminothioiminomethano)indolo[1,2-e][1,5]benzoxazocin-15-one 17,17-dioxide] | < 25 |
| COc1cccc2c1OCC1Cn3c-2c(C2CCCCC2)c2ccc(cc23)C(=O)NS(=O)(=O)N(C)CCN(Cc2cnn(C)c2)CCN1C [Compound A29, (7R)-14-cyclohexyl-4-methoxy-18,24-dimethyl-21-[(1-methyl-1H-pyrazol-4-yl)methyl]-7,8-dihydro-6H-7,11-(epiminoethanoiminoethanoiminothioiminomethano)indolo[1,2-e][1,5]benzoxazocin-15-one 17,17-dioxide] | < 25 |
| CNC(=O)CN1CCN(C)CCN(C)S(=O)(=O)NC(=O)c2ccc3c(C4CCCCC4)c4n(c3c2)CC1COc1ccccc1-4 [Compound A30, 2-[(7R)-14-cyclohexyl-18,21-dimethyl-17,17-dioxido-15-oxo-7,8-dihydro-6H-7,11-(epiminoethanoiminoethanoiminothioiminomethano)indolo[1,2-e][1,5]benzoxazocin-24-yl]-N-methylacetamide] | 25 to 150 |
| CN(C)CCN1CCC(C)(C)CCN(C)S(=O)(=O)NC(=O)c2ccc3c(C4CCCCC4)c4n(c3c2)CC1COc1ccccc1-4 [Compound A31, (7R)-14-cyclohexyl-24-[2-(dimethylamino)ethyl]-18,21,21-trimethyl-7,8-dihydro-6H-7,11-(epiminopentanoiminothioiminomethano)indolo[1,2-e][1,5]benzoxazocin-15-one 17,17-dioxide] | < 25 |
| CN1CCN(C)C2COc3c(OCCN4CCCC4)cccc3-c3c(C4CCCCC4)c4ccc(cc4n3C2)C(=O)NS(=O)(=O)N(C)CC1 [Compound A32, (7R)-14-cyclohexyl-18,21,24-trimethyl-4-(2-pyrrolidin-1-ylethoxy)-7,8-dihydro-6H-7,11-(epiminoethanoiminoethanoiminothioiminomethano)indolo[1,2-e][1,5]benzoxazocin-15-one 17,17-dioxide] | < 25 |
